# Source: ChEMBL document CHEMBL1153505, “Free and bound state structures of 6-O-methyl homoerythromycins and epitope mapping of their interactions with ribosomes” (Bioorg Med Chem, 2009)
# pIC50: −log10 of the molar value.
# Target: Bacterial 70S ribosome
# Assay: Inhibition of Escherichia coli ribosome
# Format: subcellular
row,SMILES,pIC50
1,CC[C@H]1OC(=O)[C@H](C)[C@@H](O)[C@H](C)[C@@H](O[C@@H]2O[C@H](C)C[C@H](N(C)C)[C@H]2O)[C@](C)(OC)C[C@@H](C)NC(=O)[C@H](C)[C@@H](O)[C@]1(C)O,< 4.00
2,CC[C@H]1OC(=O)[C@H](C)[C@@H](O[C@H]2C[C@@](C)(OC)[C@@H](O)[C@H](C)O2)[C@H](C)[C@@H](O[C@@H]2O[C@H](C)C[C@H](N(C)C)[C@H]2O)[C@](C)(OC)C[C@@H](C)NC(=O)[C@H](C)[C@@H](O)[C@]1(C)O,7.00
3,CC[C@H]1OC(=O)[C@H](C)[C@@H](O)[C@H](C)[C@@H](O[C@@H]2O[C@H](C)C[C@H](N(C)C)[C@H]2O)[C@](C)(OC)C[C@@H](C)C(=O)N[C@H](C)[C@@H](O)[C@]1(C)O,< 4.00
4,CC[C@H]1OC(=O)[C@H](C)[C@@H](O[C@H]2C[C@@](C)(OC)[C@@H](O)[C@H](C)O2)[C@H](C)[C@@H](O[C@@H]2O[C@H](C)C[C@H](N(C)C)[C@H]2O)[C@](C)(OC)C[C@@H](C)C(=O)N[C@H](C)[C@@H](O)[C@]1(C)O,5.89
5,CC[C@H]1OC(=O)[C@H](C)[C@@H](O[C@H]2C[C@@](C)(OC)[C@@H](O)[C@H](C)O2)[C@H](C)[C@@H](O[C@@H]2O[C@H](C)C[C@H](N(C)C)[C@H]2O)[C@](C)(O)C[C@@H](C)CN(C)[C@H](C)[C@@H](O)[C@]1(C)O [AZITHROMYCIN],6.52
